The values below come from ChEMBL document CHEMBL3352218, “Structural basis for inhibition of mycobacterial and human adenosine kinase by 7-substituted 7-(Het)aryl-7-deazaadenine ribonucleosides” (J Med Chem, 2014).

Molecules are shown by their SMILES. Some results are limits rather than exact numbers.

The term IC50 denotes the concentration at which inhibition is half-maximal.

The assay concerns Mycobacterium tuberculosis. The assay is described as follows: microbe, parasite or virus in culture. Conditions: variant bovis BCG, 504 h.
In turn, `Nc1ncnc2c1c(/C=C/c1ccccc1)cn2[C@@H]1O[C@H](CO)[C@@H](O)[C@H]1O` had an IC50 of 1300 nM.
In the case of `Nc1ncnc2c1c(-c1ccc(C(F)(F)F)cc1)cn2[C@@H]1O[C@H](CO)[C@@H](O)[C@H]1O`, the IC50 is 1160 nM.
To `CC(C)c1ccc(-c2cn([C@@H]3O[C@H](CO)[C@@H](O)[C@H]3O)c3ncnc(N)c23)cc1` belongs 5290 nM; to `CSc1ccc(-c2cn([C@@H]3O[C@H](CO)[C@@H](O)[C@H]3O)c3ncnc(N)c23)cc1`, 360 nM; to `C#Cc1cn([C@@H]2O[C@H](CO)[C@@H](O)[C@H]2O)c2ncnc(N)c12`, 130 nM.
`CC(C)(C)c1ccc(-c2cn([C@@H]3O[C@H](CO)[C@@H](O)[C@H]3O)c3ncnc(N)c23)cc1` gave an IC50 of 4540 nM.
With `Nc1ncnc2c1c(-c1ccc3c4c(cccc14)CC3)cn2[C@@H]1O[C@H](CO)[C@@H](O)[C@H]1O`, the IC50 came to 1740 nM.
For `COc1cc(-c2cn([C@@H]3O[C@H](CO)[C@@H](O)[C@H]3O)c3ncnc(N)c23)cc(OC)c1OC`, the half-inhibitory concentration (IC50) was determined as 7050 nM.
The result for `Nc1ncnc2c1c(-c1c[nH]cn1)cn2[C@@H]1O[C@H](CO)[C@@H](O)[C@H]1O` reads more than 100000 nM; that for `Nc1ncnc2c1c(-c1ncc[nH]1)cn2[C@@H]1O[C@H](CO)[C@@H](O)[C@H]1O`, more than 100000 nM; that for `Nc1ncnc2c1c(-c1ccc(-c3ccc4ccccc4c3)cc1)cn2[C@@H]1O[C@H](CO)[C@@H](O)[C@H]1O`, 74400 nM.
The compound `Nc1ncnc2c1c(-c1ccc(-c3ccccc3)cc1)cn2[C@@H]1O[C@H](CO)[C@@H](O)[C@H]1O` gave a half-maximal inhibitory concentration (IC50) of 1680 nM. This IC50 is about 44-fold lower than that of the compound before.
The result for `Nc1ncnc2c1c(-c1cc[nH]c1)cn2[C@@H]1O[C@H](CO)[C@@H](O)[C@H]1O` reads 1120 nM; that for `Cc1ccc(-c2cn([C@@H]3O[C@H](CO)[C@@H](O)[C@H]3O)c3ncnc(N)c23)cc1C`, 1130 nM.
The result for `Nc1ncnc2c1c(-c1ccc(COc3cccc4ccccc34)cc1)cn2[C@@H]1O[C@H](CO)[C@@H](O)[C@H]1O` reads 6390 nM.
The result for `Nc1ncnc2c1c(-c1ccc3c(c1)OCO3)cn2[C@@H]1O[C@H](CO)[C@@H](O)[C@H]1O` reads 1380 nM.
Regarding `Nc1ncnc2c1c(-c1cc3ccccc3c3ccccc13)cn2[C@@H]1O[C@H](CO)[C@@H](O)[C@H]1O`, half-maximal inhibition (IC50) was put at 1900 nM.
To `Nc1ncnc2c1c(-c1cn[nH]c1)cn2[C@@H]1O[C@H](CO)[C@@H](O)[C@H]1O` belongs 3080 nM; to `Nc1ncnc2c1c(-c1ccoc1)cn2[C@@H]1O[C@H](CO)[C@@H](O)[C@H]1O`, 8310 nM; to `Nc1ncnc2c1c(-c1ccc3ccccc3c1)cn2[C@@H]1O[C@H](CO)[C@@H](O)[C@H]1O`, 390 nM.
For `Nc1ncnc2c1c(-c1cccc3c1Sc1ccccc1S3)cn2[C@@H]1O[C@H](CO)[C@@H](O)[C@H]1O`, the 50% inhibitory concentration (IC50) is 44300 nM.
For the compound `Nc1ncnc2c1c(-c1ccc[nH]1)cn2[C@@H]1O[C@H](CO)[C@@H](O)[C@H]1O`, the half-inhibitory concentration (IC50) was 7270 nM. Against the preceding compound, the IC50 is about 6.1-fold lower.
Consider `Nc1ncnc2c1c(-c1cc[nH]n1)cn2[C@@H]1O[C@H](CO)[C@@H](O)[C@H]1O`, for which half-maximal inhibition (IC50) required 48000 nM. This IC50 is about 6.6-fold higher than that of the compound before.
To `Nc1ncnc2c1c(-c1cccc3ccccc13)cn2[C@@H]1O[C@H](CO)[C@@H](O)[C@H]1O` belongs 1870 nM; to `Nc1ncnc2c1c(-c1ccsc1)cn2[C@@H]1O[C@H](CO)[C@@H](O)[C@H]1O`, 3930 nM.
For `CC(C)c1cccc(-c2cn([C@@H]3O[C@H](CO)[C@@H](O)[C@H]3O)c3ncnc(N)c23)c1`, the IC50 amounted to 6750 nM. This IC50 lies about 1.7-fold higher than the previous one.
The result for `Nc1ncnc2c1c(-c1cc3ccccc3o1)cn2[C@@H]1O[C@H](CO)[C@@H](O)[C@H]1O` reads 2270 nM.
The result for `COc1ccc(-c2cn([C@@H]3O[C@H](CO)[C@@H](O)[C@H]3O)c3ncnc(N)c23)cc1` reads 2080 nM; that for `Nc1ncnc2c1c(-c1nccs1)cn2[C@@H]1O[C@H](CO)[C@@H](O)[C@H]1O`, 2510 nM.
`CC(C)Oc1ccc(-c2cn([C@@H]3O[C@H](CO)[C@@H](O)[C@H]3O)c3ncnc(N)c23)cc1` registered a concentration for half-maximal inhibition (IC50) of 3070 nM. This IC50 and that of the compound before are within 1.5-fold of each other.
For `Nc1ncnc2c1c(-c1c[nH]nn1)cn2[C@@H]1O[C@H](CO)[C@@H](O)[C@H]1O`, the IC50 was 69000 nM.
`Nc1ncnc2c1c(-c1cccc3c1Oc1ccccc1S3)cn2[C@@H]1O[C@H](CO)[C@@H](O)[C@H]1O` showed an IC50 of 4530 nM.
To `Nc1ncnc2c1c(-c1cccc3c1oc1ccccc13)cn2[C@@H]1O[C@H](CO)[C@@H](O)[C@H]1O` belongs 190 nM.
To `Nc1ncnc2c1c(-c1ccccc1)cn2[C@@H]1O[C@H](CO)[C@@H](O)[C@H]1O` belongs 1340 nM.
